Source: PubChem BioAssay AID1421 (Emory University Molecular Libraries Screening Center, 2008)

These molecules were tested against Prostaglandin E2 receptor EP2 subtype (Homo sapiens) (UniProt P43116) (assay: compounds shifting PGE2 potency at EP2 – cell-based, human EP2, PGE2 EC50 shift, dose response (AID 1421)). Settings: EP2-expressing cells, PGE2 EC50 shift by compound; measured here: PGE2 EC50 at 6.7 uM compound.
Chain of Prostaglandin E2 receptor EP2 subtype (Homo sapiens) (P43116 whole entry, looked up): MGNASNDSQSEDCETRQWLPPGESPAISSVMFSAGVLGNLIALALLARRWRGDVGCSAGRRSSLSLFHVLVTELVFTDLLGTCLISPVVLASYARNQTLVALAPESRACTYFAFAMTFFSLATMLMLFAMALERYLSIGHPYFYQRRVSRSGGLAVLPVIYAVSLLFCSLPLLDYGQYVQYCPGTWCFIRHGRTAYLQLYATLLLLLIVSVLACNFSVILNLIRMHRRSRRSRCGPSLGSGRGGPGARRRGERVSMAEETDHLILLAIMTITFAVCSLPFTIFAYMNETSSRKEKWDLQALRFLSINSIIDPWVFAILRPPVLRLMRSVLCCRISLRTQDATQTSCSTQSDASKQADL

In order of rising PGE2 EC50 with compound:
1. Cc1ccc(-c2nc3ccccc3nc2Cl)cc1  0.49 nM
2. Cc1cc(Oc2ccccc2)nc(NCc2ccccc2)n1  0.63 nM
3. Cc1ccccc1Nc1cccc2nonc12  0.64 nM
4. CCOC(=O)c1ccccc1NC(=O)C1COc2ccccc2O1 (stereo not drawn)  0.66 nM
5. O=C(NNc1ccc([N+](=O)[O-])cc1[N+](=O)[O-])C1C2CCCCC21 (stereo not drawn)  0.66 nM
6. CCOC(=O)C1=C(C)NC(C)=C(C(=O)OC)C1c1cccc(Cl)c1Cl (stereo not drawn)  0.69 nM
7. O=C1C2C3c4ccccc4C(c4ccccc43)[C@@H]2c2nc3ccccc3n21 (stereo partly drawn)  0.7 nM
8. CCSc1nnc(-c2ccc(Cl)cc2)c2ccccc12  0.76 nM
9. CCOC(=O)c1c(NC(=O)COC(=O)Cn2cnc3ccccc32)sc2c1CCC(C)C2 (stereo not drawn)  0.79 nM
10. CCOC(=O)C1=C(C)N(C)C(C)=C(C(=O)OCC)C1c1ccsc1  0.79 nM
11. O=c1cc2c(nn1Cc1c(Cl)cccc1Cl)-c1ccccc1CC2  0.79 nM
12. CCOC(=O)c1c(NC(=O)c2ccoc2C)sc(C(=O)N(C)C)c1C  0.8 nM
13. Cc1ccc(N=Nc2c(N)[nH]n3c(=O)c4c(nc23)CCCC4)cc1  0.81 nM
14. C=CCOc1c(Br)cc(/C=N/n2c(CC)n[nH]c2=S)cc1Br  0.81 nM
15. COC(=O)c1cc2ccsc2n1Cc1ccccc1F  0.83 nM
16. CC(C)c1nc(Cl)c(C#N)c2c1CSC(C)(C)C2  0.85 nM
17. Cc1ccc(-c2csc(N(CC3CCCO3)C(=O)c3ccco3)n2)cc1 (stereo not drawn)  0.87 nM
18. CCOC(=O)c1c(NC(=O)c2c(Br)cnn2CC)sc(C)c1C  0.9 nM
19. Cc1ccc(-c2nn3c(C)nnc3s2)cc1NCc1c(F)cccc1Cl  0.91 nM
20. Cc1cc(C)c2c(n1)sc1c(=O)n(Cc3ccccc3Cl)nnc12  0.92 nM
21. CCOC(=O)C(C)Sc1nc(-c2ccccc2)nc2ccccc12 (stereo not drawn)  0.92 nM
22. C=CCSc1nc2ccccc2n1S(=O)(=O)c1ccc(C)cc1  0.95 nM
23. COc1cc(C)c(C(=O)Oc2cc(C)c(C(=O)O)c(O)c2C)c(OC)c1C  0.98 nM
24. CCOC(=O)c1c(-c2cccs2)csc1NC(=O)CN1CCOCC1  0.99 nM
25. CCCOP(=O)(OCCC)c1nc(-c2ccccc2)oc1NCc1ccccc1  1.01 nM
26. CC(=O)N(Cc1cccs1)Cc1cc2ccc(C)c(C)c2nc1Cl  1.01 nM
27. O=C(Nc1ccccc1N1CCCCC1)c1ccc(F)cc1  1.01 nM
28. CC(C)(C)n1nnnc1C(c1ccncc1)N(Cc1ccccc1)Cc1ccco1 (stereo not drawn)  1.03 nM
29. COC(=O)c1sc2[nH]c(=S)n(N)c(=O)c2c1C  1.06 nM
30. CSc1ccccc1NC(=O)COc1ccc(Cl)cc1C  1.06 nM
31. O=C(O)CCCN1C(=O)/C(=C\c2ccco2)SC1=S  1.07 nM
32. CN(Cc1cccs1)c1nc(-c2cccnc2)nc2ccccc12  1.07 nM
33. Cc1cccc2cc(CN(Cc3cccs3)C3(c4nnnn4C4CCCC4)CCCC3)c(=O)[nH]c12  1.08 nM
34. CCOc1ccc(C(C)=O)cc1CC(C(N)=O)C(N)=O  1.11 nM
35. CNC(=O)c1cc2c(=O)n3cc(C)ccc3nc2n(C(C)C)c1=N  1.13 nM
36. O=C(c1ccccc1)N1N=C(c2ccccc2)CC1c1ccccc1O (stereo not drawn)  1.14 nM
37. CCCCOc1ccc(-c2nnc(-c3ccco3)o2)cc1  1.18 nM
38. C=CCCC1(C)C(=O)N(c2ccccc2)c2ccccc21 (stereo not drawn)  1.2 nM
39. CCN(CC)C(=O)c1nn(-c2ccccc2)c2c1C1CCC2(C)C1(C)C (stereo not drawn)  1.24 nM
40. NCCc1c(-c2ccccc2)n(-c2ccccc2)c2ccccc12  1.25 nM
41. CCCc1cc(-c2n[nH]c(=S)n2Cc2ccccc2)cs1  1.36 nM
42. Cn1c(=O)c2c(nc(CN3CCN(c4ccccc4)CC3)n2Cc2c(F)cccc2Cl)n(C)c1=O  1.38 nM
43. Cc1ccc(C(=O)Nc2ccccc2C(=O)NCc2ccccc2)cc1  1.42 nM
44. O=C(CO/N=C/c1ccccc1)N1c2ccccc2Oc2ccccc21  1.45 nM
45. CCOC(=O)C1=C(N)OC(C)=C(C#N)C1c1ccco1 (stereo not drawn)  1.49 nM
46. CC(C)CCn1c(-c2nonc2N)nc2ccccc21  1.49 nM
47. N#CCCSc1ncnc2c1oc1ccccc12  1.52 nM
48. N#CC1(Cc2ccccc2Cl)c2ccccc2C=CN1C(=O)c1ccccc1 (stereo not drawn)  1.54 nM
49. C[C@]12CCC(=O)C=C1CCC1C2CC[C@@]2(C)C1CC[C@@H]2O (stereo partly drawn)  1.55 nM
50. CCCCc1n[nH]c(=S)n1Cc1ccc(Cl)cc1  1.57 nM
51. COc1ccccc1N(C(=O)NCc1ccccc1)C1=NCC(C)S1 (stereo not drawn)  1.58 nM
52. C=CCSc1nc(Oc2ccccc2)c2sccc2n1  2.43 nM
53. O=C(c1cn(Cc2ccccc2)c2ccccc12)C1CC1  2.61 nM
54. C=CCn1c(=O)c2c(nc(-c3ccc(S(=O)(=O)O)cc3)n2C)n(C)c1=O  2.68 nM
55. CCc1ccc(NC(=S)N(Cc2ccccc2)Cc2ccccn2)cc1  2.7 nM
56. Cc1ccccc1Cn1c(Cc2ccccc2)nc2ccccc21  2.76 nM
57. Cc1ccc(C(=O)c2coc3ccc(OCC(=O)O)cc23)cc1  2.78 nM
58. N#Cc1c(-c2ccco2)nc(SCc2ccc(F)cc2)[nH]c1=O  2.86 nM
